Tests used:
Pons [1] = assay: Drug uptake in anesthetized cynomolgus monkey brain pons after 115 mins postinjection; type: ADME, organism-based, Macaca fascicularis; details: in vivo
Pons [2] = assay: Drug uptake in anesthetized cynomolgus monkey brain pons after 85 mins postinjection; type: ADME, organism-based, Macaca fascicularis; details: in vivo
Pons [3] = assay: Drug uptake in anesthetized cynomolgus monkey brain pons after 185 mins postinjection; type: ADME, organism-based, Macaca fascicularis; details: in vivo
[4] = Drug uptake in anesthetized cynomolgus monkey brain cerebellum after 1.5 mins postinjection; type: ADME, organism-based, Macaca fascicularis; details: in vivo, 0.025 h
[5] = Ratio of drug uptake in frontal lobe to cerebellum in anesthetized cynomolgus monkey after 195 mins postinjection; type: ADME, organism-based, Macaca fascicularis; details: in vivo, 3.25 h
[6] = Ratio of drug uptake in frontal lobe to cerebellum in anesthetized cynomolgus monkey after 75 mins postinjection; type: ADME, organism-based, Macaca fascicularis; details: in vivo, 1.25 h
[7] = Drug uptake in anesthetized cynomolgus monkey brain frontal lobe after 215 mins postinjection; type: ADME, organism-based, Macaca fascicularis; details: in vivo
Thalamus [8] = assay: Drug uptake in anesthetized cynomolgus monkey brain thalamus after 9.5 mins postinjection; type: ADME, organism-based, Macaca fascicularis; set-up: unit not given here; details: in vivo
[9] = Ratio of drug uptake in pons to cerebellum in anesthetized cynomolgus monkey after 145 mins postinjection; type: ADME, organism-based, Macaca fascicularis; details: in vivo
[10] = Ratio of drug uptake in midbrain to cerebellum in anesthetized cynomolgus monkey after 225 mins postinjection; type: ADME, organism-based, Macaca fascicularis; details: in vivo, 3.75 h
[11] = Ratio of drug uptake in thalamus to cerebellum in anesthetized cynomolgus monkey after 195 mins postinjection; type: ADME, organism-based, Macaca fascicularis; details: in vivo, 3.25 h
Putamen [12] = assay: Drug uptake in anesthetized cynomolgus monkey brain putamen after 205 mins postinjection; type: ADME, organism-based, Macaca fascicularis; details: in vivo
[13] = Ratio of drug uptake in medulla to cerebellum in anesthetized cynomolgus monkey after 195 mins postinjection; type: ADME, organism-based, Macaca fascicularis; details: in vivo, 3.25 h
Thalamus [14] = assay: Drug uptake in anesthetized cynomolgus monkey brain thalamus after 145 mins postinjection; type: ADME, organism-based, Macaca fascicularis; set-up: unit not given here; details: in vivo
[15] = Ratio of drug uptake in putamen to cerebellum in anesthetized cynomolgus monkey after 215 mins postinjection; type: ADME, organism-based, Macaca fascicularis; details: in vivo
Pons [16] = assay: Drug uptake in anesthetized cynomolgus monkey brain pons after 135 mins postinjection; type: ADME, organism-based, Macaca fascicularis; details: in vivo, 2.25 h
[17] = Drug uptake in anesthetized cynomolgus monkey brain frontal lobe after 35 mins postinjection; type: ADME, organism-based, Macaca fascicularis; details: in vivo
Pons [18] = assay: Drug uptake in anesthetized cynomolgus monkey brain pons after 165 mins postinjection; type: ADME, organism-based, Macaca fascicularis; details: in vivo, 2.75 h
[19] = Ratio of drug uptake in caudate to cerebellum in anesthetized cynomolgus monkey after 12.5 mins postinjection; type: ADME, organism-based, Macaca fascicularis; details: in vivo
[20] = Drug uptake in anesthetized cynomolgus monkey brain cerebellum after 95 mins postinjection; type: ADME, organism-based, Macaca fascicularis; details: in vivo
Caudate [21] = assay: Drug uptake in anesthetized cynomolgus monkey brain caudate after 155 mins postinjection; type: ADME, organism-based, Macaca fascicularis, Caudate nucleus; details: in vivo
[22] = Drug uptake in anesthetized cynomolgus monkey brain occipital lobe after 125 mins postinjection; type: ADME, organism-based, Macaca fascicularis; details: in vivo
Thalamus [23] = assay: Drug uptake in anesthetized cynomolgus monkey brain thalamus after 195 mins postinjection; type: ADME, organism-based, Macaca fascicularis; details: in vivo, 3.25 h
[24] = Ratio of drug uptake in putamen to cerebellum in anesthetized cynomolgus monkey after 75 mins postinjection; type: ADME, organism-based, Macaca fascicularis; details: in vivo, 1.25 h
[25] = Drug uptake in anesthetized cynomolgus monkey brain frontal lobe after 195 mins postinjection; type: ADME, organism-based, Macaca fascicularis; details: in vivo, 3.25 h
Pons [26] = assay: Drug uptake in anesthetized cynomolgus monkey brain pons after 9.5 mins postinjection; type: ADME, organism-based, Macaca fascicularis; details: in vivo
[27] = Ratio of drug uptake in pons to cerebellum in anesthetized cynomolgus monkey after 175 mins postinjection; type: ADME, organism-based, Macaca fascicularis; details: in vivo
Pons [28] = assay: Drug uptake in anesthetized cynomolgus monkey brain pons after 4.5 mins postinjection; type: ADME, organism-based, Macaca fascicularis; details: in vivo, 0.075 h
Caudate [29] = assay: Drug uptake in anesthetized cynomolgus monkey brain caudate after 165 mins postinjection; type: ADME, organism-based, Macaca fascicularis, Caudate nucleus; details: in vivo, 2.75 h
Medulla [30] = assay: Drug uptake in anesthetized cynomolgus monkey brain medulla after 22.5 mins postinjection; type: ADME, organism-based, Macaca fascicularis; details: in vivo, 0.375 h
Medulla [31] = assay: Drug uptake in anesthetized cynomolgus monkey brain medulla after 115 mins postinjection; type: ADME, organism-based, Macaca fascicularis; details: in vivo
Putamen [32] = assay: Drug uptake in anesthetized cynomolgus monkey brain putamen after 75 mins postinjection; type: ADME, organism-based, Macaca fascicularis; set-up: unit not given here; details: in vivo, 1.25 h
[33] = Drug uptake in anesthetized cynomolgus monkey brain occipital lobe after 215 mins postinjection; type: ADME, organism-based, Macaca fascicularis; details: in vivo
[34] = Ratio of drug uptake in frontal lobe to cerebellum in anesthetized cynomolgus monkey after 95 mins postinjection; type: ADME, organism-based, Macaca fascicularis; details: in vivo
Thalamus [35] = assay: Drug uptake in anesthetized cynomolgus monkey brain thalamus after 0.5 mins postinjection; type: ADME, organism-based, Macaca fascicularis; details: in vivo
Medulla [36] = assay: Drug uptake in anesthetized cynomolgus monkey brain medulla after 6.5 mins postinjection; type: ADME, organism-based, Macaca fascicularis; details: in vivo
Putamen [37] = assay: Drug uptake in anesthetized cynomolgus monkey brain putamen after 18.5 mins postinjection; type: ADME, organism-based, Macaca fascicularis; set-up: unit not given here; details: in vivo
Caudate [38] = assay: Drug uptake in anesthetized cynomolgus monkey brain caudate after 3.5 mins postinjection; type: ADME, organism-based, Macaca fascicularis, Caudate nucleus; details: in vivo
[39] = Drug uptake in anesthetized cynomolgus monkey brain cerebellum after 12.5 mins postinjection; type: ADME, organism-based, Macaca fascicularis; details: in vivo
Thalamus [40] = assay: Drug uptake in anesthetized cynomolgus monkey brain thalamus after 18.5 mins postinjection; type: ADME, organism-based, Macaca fascicularis; set-up: unit not given here; details: in vivo
Thalamus [41] = assay: Drug uptake in anesthetized cynomolgus monkey brain thalamus after 65 mins postinjection; type: ADME, organism-based, Macaca fascicularis; set-up: unit not given here; details: in vivo
Caudate [42] = assay: Drug uptake in anesthetized cynomolgus monkey brain caudate after 27.5 mins postinjection; type: ADME, organism-based, Macaca fascicularis, Caudate nucleus; details: in vivo
Midbrain = assay: Drug uptake in anesthetized cynomolgus monkey brain midbrain after 145 mins postinjection; type: ADME, organism-based, Macaca fascicularis; details: in vivo
Putamen [43] = assay: Drug uptake in anesthetized cynomolgus monkey brain putamen after 1.5 mins postinjection; type: ADME, organism-based, Macaca fascicularis; details: in vivo, 0.025 h
[44] = Drug uptake in anesthetized cynomolgus monkey brain cerebellum after 0.5 mins postinjection; type: ADME, organism-based, Macaca fascicularis; details: in vivo

O=C(OCC[18F])C1C2CCC(CC1c1ccc(/C=C\I)cc1)N2 (stereo not given)
Drug uptake (Pons [1]): 3.65
Drug uptake (Pons [2]): 3.38
Drug uptake (Pons [3]): 3.44
Drug uptake [4]: 0.1
Ratio [5]: 1.3
Ratio [6]: 0.9
Drug uptake [7]: 1.6
Drug uptake (Thalamus [8]): 2.06
Ratio [9]: 2.3
Ratio [10]: 4.2
Ratio [11]: 2.8
Drug uptake (Putamen [12]): 3.94
Ratio [13]: 2.6
Drug uptake (Thalamus [14]): 3.98
Ratio [15]: 3.3
Drug uptake (Pons [16]): 3.6
Drug uptake [17]: 1.86
Drug uptake (Pons [18]): 3.54
Ratio [19]: 0.8
Drug uptake [20]: 2.14
Drug uptake (Caudate [21]): 3.03
Drug uptake [22]: 2.24
Drug uptake (Thalamus [23]): 3.67
Ratio [24]: 1.8
Drug uptake [25]: 1.7
Drug uptake (Pons [26]): 1.62
Ratio [27]: 2.7
Drug uptake (Pons [28]): 0.8
Drug uptake (Caudate [29]): 2.99
Drug uptake (Medulla [30]): 3.09
Drug uptake (Medulla [31]): 3.8
Drug uptake (Putamen [32]): 4.28
Drug uptake [33]: 1.68
Ratio [34]: 0.9
Drug uptake (Thalamus [35]): 0
Drug uptake (Medulla [36]): 2.02
Drug uptake (Putamen [37]): 2.87
Drug uptake (Caudate [38]): 0.56
Drug uptake [39]: 2.13
Drug uptake (Thalamus [40]): 2.7
Drug uptake (Thalamus [41]): 3.92
Drug uptake (Caudate [42]): 2.17
Drug uptake (Midbrain): 4.65
Drug uptake (Putamen [43]): 0.11
Drug uptake [44]: 0

Reference: ChEMBL document CHEMBL1151757, “Synthesis, radiosynthesis, and biological evaluation of fluorine-18-labeled 2beta-carbo(fluoroalkoxy)-3beta-(3'-((Z)-2-haloethenyl)phenyl)nortropanes: candidate radioligands for in vivo imaging of the serotonin transporter with positron emission tomography” (J Med Chem, 2008)
